{
  "source": "ChEMBL document CHEMBL1201862",
  "about": "“PubChem BioAssay data set” (2004)",
  "key": {"[1]": {"assay": "toxicity to human hepatoma HepG2 cells – cell-based, cherry-picked samples, cytotoxicity control, dose response (AID 1159577)", "assay_type": "functional"}, "[2]": {"assay": "P. falciparum Dd2 growth inhibitors, dose response, SYBR Green, cherry-picked samples (AID 1159567)", "assay_type": "functional, cell-based"}, "[3]": {"assay": "cells", "assay_type": "functional, cell-based"}, "[4]": {"molecular_target": "T1, Trace amine-associated receptor 1 (Homo sapiens, UniProt Q96RJ0)", "T1 sequence (Q96RJ0 whole entry)": "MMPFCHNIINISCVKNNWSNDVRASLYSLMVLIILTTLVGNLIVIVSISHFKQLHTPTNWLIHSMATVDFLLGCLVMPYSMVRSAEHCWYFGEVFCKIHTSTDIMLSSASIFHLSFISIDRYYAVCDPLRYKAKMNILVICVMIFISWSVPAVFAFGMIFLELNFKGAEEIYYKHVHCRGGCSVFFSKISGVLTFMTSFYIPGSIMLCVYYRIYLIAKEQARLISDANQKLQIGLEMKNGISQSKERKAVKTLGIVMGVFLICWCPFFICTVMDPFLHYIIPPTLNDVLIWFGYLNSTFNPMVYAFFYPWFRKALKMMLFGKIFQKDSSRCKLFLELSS", "assay": "Counterscreen for agonists of the human trace amine associated receptor 1 (hTAAR1): Fluorescence-based cell-based high throughput dose response assay to identify hTAAR1 agonist that also desensitize TAAR1 receptor response.", "assay_type": "functional"}, "[5]": {"molecular_target": "T1, Trace amine-associated receptor 1", "assay": "Fluorescence-based cell-based high throughput dose response assay to identify agonists of the human trace amine associated receptor 1 (TAAR1).", "assay_type": "functional"}, "[6]": {"assay": "cells", "assay_type": "functional, cell-based", "remark": "listed apart in the source"}, "[7]": {"molecular_target": "T2, Mannose-6-phosphate isomerase (Homo sapiens, UniProt P34949)", "T2 sequence (P34949 whole entry)": "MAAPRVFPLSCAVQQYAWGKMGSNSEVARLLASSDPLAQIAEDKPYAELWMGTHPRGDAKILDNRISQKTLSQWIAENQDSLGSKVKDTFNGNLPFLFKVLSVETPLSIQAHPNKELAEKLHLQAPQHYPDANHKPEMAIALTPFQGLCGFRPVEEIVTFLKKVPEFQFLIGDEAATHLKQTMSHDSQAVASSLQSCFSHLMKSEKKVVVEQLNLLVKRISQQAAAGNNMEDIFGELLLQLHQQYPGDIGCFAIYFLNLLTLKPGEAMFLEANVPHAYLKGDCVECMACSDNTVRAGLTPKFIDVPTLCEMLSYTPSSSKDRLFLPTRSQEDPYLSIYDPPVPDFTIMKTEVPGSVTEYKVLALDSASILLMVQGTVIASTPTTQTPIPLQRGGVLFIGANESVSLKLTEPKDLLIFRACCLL", "assay": "MPI inhibition at elevated mannose 6-phosphate – biochemical, fluorescence intensity, high mannose 6-phosphate, primary screen (AID 1220)"}, "[8]": {"molecular_target": "Heat shock protein HSP 90-alpha (Homo sapiens, UniProt P07900)", "assay": "Luminescence-based dose response biochemical high throughput screening assay for inhibitors of the Heat Shock Protein 90 (HSP90). [Related pubchem assays: 1831 (Summary AID.), 1846 (Confirmation screen.), 1789 (Primary screen.)]"}, "[9]": {"assay": "NIH-3T3 fibroblast cytotoxicity, dose response, cytotoxicity control, cell-based, fluorescence, Alamar Blue, secondary assay (AID 2327);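 note: NIH-3T3 mouse fibroblasts cultured with fluconazole at 8 µg/mL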", "assay_type": "functional"}, "[10]": {"assay": "fluconazole-exposed Candida albicans growth modulators – fluorescence, retest, confirmation (AID 2467)", "assay_type": "functional, cell-based"}, "[11]": {"assay": "general cell-killing toxicity readout – plate reader, dry powder samples, cytotoxicity control for PAX8 inhibitor project, dose response (AID 743021)", "assay_type": "functional, cell-based"}, "[12]": {"molecular_target": "Paired box protein Pax-8 (Homo sapiens, UniProt Q06710)", "sequence (Q06710 whole entry)": "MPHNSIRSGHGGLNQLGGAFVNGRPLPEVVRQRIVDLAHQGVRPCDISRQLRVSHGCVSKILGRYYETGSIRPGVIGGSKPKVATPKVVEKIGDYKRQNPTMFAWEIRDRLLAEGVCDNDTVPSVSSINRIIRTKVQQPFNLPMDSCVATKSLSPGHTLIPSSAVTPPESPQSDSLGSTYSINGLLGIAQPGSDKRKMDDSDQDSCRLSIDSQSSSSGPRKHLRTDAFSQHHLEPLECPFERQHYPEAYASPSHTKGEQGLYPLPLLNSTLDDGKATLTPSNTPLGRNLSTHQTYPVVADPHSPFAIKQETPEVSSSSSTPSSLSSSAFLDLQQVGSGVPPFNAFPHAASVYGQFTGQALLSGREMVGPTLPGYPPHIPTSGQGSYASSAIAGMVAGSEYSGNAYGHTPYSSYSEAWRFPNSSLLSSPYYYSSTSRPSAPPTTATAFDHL", "assay": "PAX8 transcriptional activity inhibition in RMG-I – RMG-I cells, luciferase, cherry-pick, dose response (AID 687027);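 note: luciferase reporter driven by Pax8 target thyroperoxidase promoter measured by SteadyGlo luminescence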", "assay_type": "functional, cell-based"}, "[13]": {"molecular_target": "T3, Replicative DNA helicase DnaB (Mycobacterium tuberculosis, UniProt P9WMR3)", "T3 sequence (P9WMR3 whole entry)": "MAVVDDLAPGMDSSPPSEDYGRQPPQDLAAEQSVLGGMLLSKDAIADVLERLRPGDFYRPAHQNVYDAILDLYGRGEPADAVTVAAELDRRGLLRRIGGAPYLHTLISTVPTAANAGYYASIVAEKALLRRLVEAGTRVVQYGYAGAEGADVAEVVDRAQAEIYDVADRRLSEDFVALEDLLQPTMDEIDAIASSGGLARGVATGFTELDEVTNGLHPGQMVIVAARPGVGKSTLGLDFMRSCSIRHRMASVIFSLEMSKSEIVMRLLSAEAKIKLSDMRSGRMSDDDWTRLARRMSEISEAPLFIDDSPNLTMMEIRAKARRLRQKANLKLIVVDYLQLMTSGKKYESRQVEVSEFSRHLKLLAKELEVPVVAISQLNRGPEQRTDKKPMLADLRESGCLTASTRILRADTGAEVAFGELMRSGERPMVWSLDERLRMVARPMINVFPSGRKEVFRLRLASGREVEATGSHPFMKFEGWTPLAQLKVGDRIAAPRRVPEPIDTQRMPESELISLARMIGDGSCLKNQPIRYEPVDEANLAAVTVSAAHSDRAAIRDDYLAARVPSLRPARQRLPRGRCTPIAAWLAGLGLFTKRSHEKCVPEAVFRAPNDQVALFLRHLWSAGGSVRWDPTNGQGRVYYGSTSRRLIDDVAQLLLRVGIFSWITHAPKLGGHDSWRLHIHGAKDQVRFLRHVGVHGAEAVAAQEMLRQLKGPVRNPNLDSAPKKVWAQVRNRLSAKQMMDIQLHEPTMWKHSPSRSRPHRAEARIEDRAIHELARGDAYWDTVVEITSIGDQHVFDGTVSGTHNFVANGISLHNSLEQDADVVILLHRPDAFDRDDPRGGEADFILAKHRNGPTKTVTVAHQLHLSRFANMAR", "assay": "DnaB intein splicing inhibitors, dose response, biochemical, cell-free fluorescence (AID 449749)", "assay_type": "functional"}, "[14]": {"molecular_target": "T4, Protein RecA (Mycobacterium tuberculosis, UniProt P9WHJ3)", "T4 sequence (P9WHJ3 whole entry)": "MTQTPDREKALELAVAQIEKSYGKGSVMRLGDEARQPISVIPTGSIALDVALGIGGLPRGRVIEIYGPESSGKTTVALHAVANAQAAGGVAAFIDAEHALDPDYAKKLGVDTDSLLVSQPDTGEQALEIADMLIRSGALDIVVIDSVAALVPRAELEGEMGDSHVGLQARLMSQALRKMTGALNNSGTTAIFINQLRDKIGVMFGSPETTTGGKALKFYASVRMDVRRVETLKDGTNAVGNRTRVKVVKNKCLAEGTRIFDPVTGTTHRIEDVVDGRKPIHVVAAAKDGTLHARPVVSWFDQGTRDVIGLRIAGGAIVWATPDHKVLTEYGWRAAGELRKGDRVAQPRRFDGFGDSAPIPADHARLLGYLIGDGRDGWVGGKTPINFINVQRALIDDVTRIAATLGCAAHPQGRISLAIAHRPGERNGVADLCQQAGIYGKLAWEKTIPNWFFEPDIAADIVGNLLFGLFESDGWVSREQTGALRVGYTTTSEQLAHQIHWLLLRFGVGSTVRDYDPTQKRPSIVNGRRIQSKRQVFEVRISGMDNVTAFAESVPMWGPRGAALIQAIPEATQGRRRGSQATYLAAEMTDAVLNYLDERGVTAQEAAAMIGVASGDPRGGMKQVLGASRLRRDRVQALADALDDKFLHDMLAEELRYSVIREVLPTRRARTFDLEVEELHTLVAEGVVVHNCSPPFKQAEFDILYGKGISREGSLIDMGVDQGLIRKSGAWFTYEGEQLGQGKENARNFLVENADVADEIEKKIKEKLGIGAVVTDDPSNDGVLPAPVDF", "assay": "Fluorescence Cell-Free Homogeneous Dose Retest to Identify Inhibitors of RecA-Intein Splicing Activity. [Related pubchem assays (depositor defined):AID2097, AID2223, AID489010, AID492950]", "assay_type": "functional"}},
  "note": "Calls of active or inactive are those of the source.",
  "data": [
    {"smiles": "COc1ccc(C#Cc2ccc([C@H]3[C@@H](CO)N4CCCCN(C(=O)Nc5ccccc5F)C[C@H]34)cc2)cc1", "values": [
      {"measurement": "AC50", "setting": "[1]", "result": "7 µM (active)"},
      {"measurement": "AC50", "setting": "[2]", "result": "1.02 µM (active)"}
    ]},
    {"smiles": "CCc1ccccc1NC(=O)N1CCc2ccccc2C1", "values": [
      {"measurement": "EC50", "setting": "[3]", "result": "> 29.9 µM (inactive)"},
      {"measurement": "IC50", "setting": "[4]", "result": "> 29.9 µM (inactive)"},
      {"measurement": "EC50", "setting": "[5]", "result": "0.321 µM (active)"},
      {"measurement": "IC50", "setting": "[6]", "result": "> 29.9 µM (inactive)"}
    ]},
    {"smiles": "Cc1cccc(N2C(=O)/C(=C/N3CCN(C(=O)c4ccco4)CC3)C(=O)NC2=S)c1", "values": [
      {"measurement": "IC50", "setting": "[7]", "result": "> 50 µM (not active)"}
    ]},
    {"smiles": "O=C(Cc1ccccc1)N1CCN(S(=O)(=O)c2ccc([N+](=O)[O-])cc2)CC1", "values": [
      {"measurement": "IC50", "setting": "[8]", "result": "29.1 µM (not active)"}
    ]},
    {"smiles": "CCOC(=O)N1CCN(Cc2ccc(O)c3ncccc23)CC1", "values": [
      {"measurement": "EC50", "setting": "[9]", "result": "> 150 µM (inactive)"},
      {"measurement": "IC50", "setting": "[7]", "result": "10.6 µM (active)"},
      {"measurement": "EC50", "setting": "[10]", "result": "> 38 µM (not active)"}
    ]},
    {"smiles": "O=C(CCl)N(Cc1ccccc1)c1ccccc1", "values": [
      {"measurement": "AC50", "setting": "[11]", "result": "9.34 µM (active)"},
      {"measurement": "AC50", "setting": "[12]", "result": "3.95 µM (active)"},
      {"measurement": "AC50", "setting": "[13]", "result": "18.4 µM (active)"},
      {"measurement": "EC50", "setting": "[14]", "result": "0.813 µM (active)"}
    ]},
    {"smiles": "COc1ccc(N(/N=C2\\Sc3ccccc3C2=O)C(C)=O)cc1", "values": [
      {"measurement": "IC50", "setting": "[8]", "result": "1.96 µM (active)"}
    ]}
  ]
}
